Assay [1] has as its system Burkholderia pseudomallei Human/Blood/OH/US/1994. Put plainly: microbe, parasite or virus in culture. The conditions noted are these: Burkholderia pseudomallei, read-out: MIC B. pseudomallei Human/Blood/OH. In kind it is cell-based.
The target of assay [2] is E. coli RNA polymerase σ^70 holoenzyme (Escherichia coli, UniProt P0A8T7+P0A8V2). The assay is described as follows: Fluorescence-detected RNA polymerase assay, E. coli RNA polymerase. Type of assay: biochemical. The conditions noted are these: read-out: IC50 E. coli RNAP.
The subject of assay [3] is Mycobacterium tuberculosis H37Rv. The assay is described as follows: MIC, microplate Alamar Blue assay, M. tuberculosis. Type of assay: cell-based. (Alamar Blue is a resazurin reagent that responds to reducing activity.)
In assay [4] the test system is Bacillus anthracis Vollum 1b. Put plainly: microbe, parasite or virus in culture. Type of assay: cell-based. The conditions noted are these: Bacillus anthracis, VOLLUM1B, read-out: MIC B. anthracis Vollum-1b.
The test system of assay [5] is Staphylococcus aureus ATCC 12600. The assay is described as follows: MIC, spiral gradient endpoint assay, S. aureus ATCC 12600. Type of assay: cell-based. The conditions noted are these: ATCC12600; Staphylococcus aureus ATCC 12600.
Another assay has as its system Brucella melitensis 16M. The assay is described as follows: microbe, parasite or virus in culture. In kind it is cell-based. The conditions noted are these: Brucella melitensis, 16M, read-out: MIC B. melitensis 16M.
For assay [6], the system named is Escherichia coli D21f2tolC. Put plainly: MIC, spiral gradient endpoint assay, E. coli D21f2tolC. In kind it is cell-based. As to conditions: Escherichia coli, D21F2TOLC, read-out: MIC E. coli D21f2toIC.
Assay [7] has as its system Francisella tularensis SCHU4. Put plainly: microbe, parasite or virus in culture. Type of assay: cell-based. As to conditions: Francisella tularensis, SCHU4, read-out: MIC F. tularensis SCHU4.
Assay [8] relates to Acinetobacter baumannii ATCC 19606. Put plainly: MIC, spiral gradient endpoint assay, A. baumannii. Type of assay: cell-based. As to conditions: ATCC19606; Acinetobacter baumannii ATCC 19606.
A further assay has as its system Burkholderia mallei CHN7. The assay is described as follows: microbe, parasite or virus in culture. Type of assay: cell-based. The conditions noted are these: Burkholderia mallei, CHN7, read-out: MIC B. mallei CHN7.

MIC and IC50 data for 17 molecules are collected here from US9592221B2, “Antibacterial agents: aryl myxopyronin derivatives” (priority 2012, dated 2017).

Structures are written as SMILES. Values after ≈ are worked out from the molar mass of the structure shown. Where only a bound is given, the exact number is not on record here.

Sequence of E. coli RNA polymerase σ^70 holoenzyme (P0A8T7 whole entry): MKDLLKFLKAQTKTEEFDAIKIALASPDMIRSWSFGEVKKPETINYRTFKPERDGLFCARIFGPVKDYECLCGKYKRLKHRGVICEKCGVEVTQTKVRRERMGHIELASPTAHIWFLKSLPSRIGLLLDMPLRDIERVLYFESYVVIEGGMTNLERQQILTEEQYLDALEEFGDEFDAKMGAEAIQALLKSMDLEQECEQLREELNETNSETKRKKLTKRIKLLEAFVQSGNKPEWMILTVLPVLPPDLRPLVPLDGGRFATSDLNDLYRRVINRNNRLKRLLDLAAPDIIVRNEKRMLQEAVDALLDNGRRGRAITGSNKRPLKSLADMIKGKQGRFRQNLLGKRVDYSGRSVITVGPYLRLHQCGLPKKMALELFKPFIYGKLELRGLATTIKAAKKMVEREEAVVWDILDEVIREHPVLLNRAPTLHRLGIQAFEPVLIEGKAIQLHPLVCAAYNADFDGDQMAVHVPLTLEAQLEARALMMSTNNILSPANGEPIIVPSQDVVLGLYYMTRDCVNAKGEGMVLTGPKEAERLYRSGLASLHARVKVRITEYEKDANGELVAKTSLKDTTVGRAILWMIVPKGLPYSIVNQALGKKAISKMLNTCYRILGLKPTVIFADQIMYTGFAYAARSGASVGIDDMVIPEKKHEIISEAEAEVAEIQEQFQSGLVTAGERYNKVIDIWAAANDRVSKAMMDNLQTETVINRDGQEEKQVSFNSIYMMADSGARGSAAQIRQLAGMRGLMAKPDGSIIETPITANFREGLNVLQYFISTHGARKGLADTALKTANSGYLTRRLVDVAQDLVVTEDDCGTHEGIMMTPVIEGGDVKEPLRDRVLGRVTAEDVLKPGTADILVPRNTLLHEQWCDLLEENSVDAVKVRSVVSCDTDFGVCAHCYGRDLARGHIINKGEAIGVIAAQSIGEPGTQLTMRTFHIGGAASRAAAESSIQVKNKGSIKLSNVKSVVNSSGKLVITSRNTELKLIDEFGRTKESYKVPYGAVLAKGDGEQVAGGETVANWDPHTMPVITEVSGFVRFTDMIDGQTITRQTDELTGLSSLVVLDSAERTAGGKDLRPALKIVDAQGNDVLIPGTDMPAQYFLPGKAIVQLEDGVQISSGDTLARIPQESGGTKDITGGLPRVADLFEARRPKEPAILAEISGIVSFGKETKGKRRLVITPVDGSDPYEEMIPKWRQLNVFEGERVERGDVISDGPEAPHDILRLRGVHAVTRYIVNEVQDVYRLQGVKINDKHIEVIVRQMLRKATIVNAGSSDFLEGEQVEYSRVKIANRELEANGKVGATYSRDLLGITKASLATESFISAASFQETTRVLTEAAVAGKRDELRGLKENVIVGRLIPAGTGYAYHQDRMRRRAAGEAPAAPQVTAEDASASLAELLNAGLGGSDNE
Sequence of E. coli RNA polymerase σ^70 holoenzyme (P0A800 whole entry, further chain): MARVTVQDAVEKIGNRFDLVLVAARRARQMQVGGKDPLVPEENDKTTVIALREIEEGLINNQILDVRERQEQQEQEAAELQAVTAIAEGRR
Sequence of E. coli RNA polymerase σ^70 holoenzyme (P0A8V2 whole entry): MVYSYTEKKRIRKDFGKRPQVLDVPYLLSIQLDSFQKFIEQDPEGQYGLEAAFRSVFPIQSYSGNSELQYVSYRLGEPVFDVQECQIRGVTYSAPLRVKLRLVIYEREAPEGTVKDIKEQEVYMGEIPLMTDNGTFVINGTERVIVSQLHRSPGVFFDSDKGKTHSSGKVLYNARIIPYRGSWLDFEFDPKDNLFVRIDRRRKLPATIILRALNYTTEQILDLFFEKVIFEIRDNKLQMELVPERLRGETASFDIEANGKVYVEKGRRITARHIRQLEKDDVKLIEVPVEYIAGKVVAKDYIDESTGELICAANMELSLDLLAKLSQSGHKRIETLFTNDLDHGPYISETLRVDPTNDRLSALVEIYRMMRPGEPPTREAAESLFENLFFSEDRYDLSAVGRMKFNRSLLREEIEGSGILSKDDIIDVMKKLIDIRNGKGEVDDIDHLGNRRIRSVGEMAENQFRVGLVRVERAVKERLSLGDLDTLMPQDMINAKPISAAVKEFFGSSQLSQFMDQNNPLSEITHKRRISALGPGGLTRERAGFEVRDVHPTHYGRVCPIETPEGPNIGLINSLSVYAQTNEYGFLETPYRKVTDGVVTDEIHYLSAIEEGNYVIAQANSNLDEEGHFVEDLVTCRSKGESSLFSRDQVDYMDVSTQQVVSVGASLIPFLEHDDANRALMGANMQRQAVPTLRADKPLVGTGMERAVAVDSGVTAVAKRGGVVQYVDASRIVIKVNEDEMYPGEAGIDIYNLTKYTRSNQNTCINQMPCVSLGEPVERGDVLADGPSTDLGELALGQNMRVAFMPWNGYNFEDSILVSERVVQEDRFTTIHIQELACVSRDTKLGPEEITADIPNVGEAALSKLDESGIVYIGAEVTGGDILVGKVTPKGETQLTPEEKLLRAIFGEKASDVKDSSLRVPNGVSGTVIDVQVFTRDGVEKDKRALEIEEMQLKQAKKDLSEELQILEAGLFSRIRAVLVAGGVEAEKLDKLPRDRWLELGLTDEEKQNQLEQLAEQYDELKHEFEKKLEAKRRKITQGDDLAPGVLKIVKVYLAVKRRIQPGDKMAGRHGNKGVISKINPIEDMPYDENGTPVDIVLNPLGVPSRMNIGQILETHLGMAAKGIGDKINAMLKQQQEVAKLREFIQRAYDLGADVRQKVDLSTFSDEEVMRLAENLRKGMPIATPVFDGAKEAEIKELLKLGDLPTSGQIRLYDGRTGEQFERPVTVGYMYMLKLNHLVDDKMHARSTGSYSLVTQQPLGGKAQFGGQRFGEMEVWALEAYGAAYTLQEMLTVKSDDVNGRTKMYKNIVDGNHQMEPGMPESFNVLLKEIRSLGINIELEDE
Sequence of E. coli RNA polymerase σ^70 holoenzyme (P00579 whole entry, further chain): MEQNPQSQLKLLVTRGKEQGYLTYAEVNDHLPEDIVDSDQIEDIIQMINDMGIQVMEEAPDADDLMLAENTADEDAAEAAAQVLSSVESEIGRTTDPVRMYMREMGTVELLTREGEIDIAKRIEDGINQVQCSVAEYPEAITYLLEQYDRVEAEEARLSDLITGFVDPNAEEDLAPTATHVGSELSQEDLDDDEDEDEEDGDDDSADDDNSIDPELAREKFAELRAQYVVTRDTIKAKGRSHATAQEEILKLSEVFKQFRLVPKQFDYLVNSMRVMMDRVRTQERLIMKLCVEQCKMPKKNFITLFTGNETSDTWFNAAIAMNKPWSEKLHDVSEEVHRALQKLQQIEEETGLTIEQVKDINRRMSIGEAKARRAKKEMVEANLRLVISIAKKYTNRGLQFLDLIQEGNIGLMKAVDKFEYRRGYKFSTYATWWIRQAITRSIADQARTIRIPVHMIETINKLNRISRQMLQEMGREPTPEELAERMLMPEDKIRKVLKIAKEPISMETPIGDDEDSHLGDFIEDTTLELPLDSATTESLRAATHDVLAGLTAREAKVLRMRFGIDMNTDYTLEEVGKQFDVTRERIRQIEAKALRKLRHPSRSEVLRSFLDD
Sequence of E. coli RNA polymerase σ^70 holoenzyme (P0A7Z4 whole entry, further chain): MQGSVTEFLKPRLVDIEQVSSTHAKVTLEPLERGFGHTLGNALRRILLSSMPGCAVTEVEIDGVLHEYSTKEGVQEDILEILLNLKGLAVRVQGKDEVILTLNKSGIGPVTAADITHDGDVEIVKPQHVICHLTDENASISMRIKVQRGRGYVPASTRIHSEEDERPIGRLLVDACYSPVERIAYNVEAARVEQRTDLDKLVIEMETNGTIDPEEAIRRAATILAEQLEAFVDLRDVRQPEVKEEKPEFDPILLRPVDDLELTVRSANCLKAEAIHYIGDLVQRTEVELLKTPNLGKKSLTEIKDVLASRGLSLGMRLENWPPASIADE

Consider `COC(=O)N/C=C/CCC(C)c1cc(O)c(C(=O)C(C)=Cc2ccc(CCCCCC(F)(F)F)s2)c(=O)o1` (mixture of isomers) [APY82, methyl ((1E)-5-(4-hydroxy-3-(2-methyl-3-(5-(6,6,6-trifluorohexyl)thiophen-2-yl)acryloyl)-2-oxo-2H-pyran-6-yl)hex-1-en-1-yl)carbamate], for which the MIC in assay [1] was 6 µg/mL; in assay [3], above 50 µg/mL; in [4] it was 3 µg/mL; in assay [5], 10 µg/mL; in the assay with Brucella melitensis 16M, 2 µg/mL; in assay [6] it was 0.07 µg/mL. Further, the results for the MIC (in [7]; in assay [8]; in the assay with Burkholderia mallei CHN7) were 10 µg/mL, 20 µg/mL and 6 µg/mL, respectively. The IC50 (commonly the concentration that inhibits the measured activity by half) in assay [2] is 5 nM.
Regarding `COC(=O)N/C=C/CCC(C)c1cc(O)c(C(=O)C(C)=Cc2ccc(OCC(C)(C)C)cc2)c(=O)o1` (mixture of isomers) [APY55, methyl (E)-5-(4-hydroxy-3-((E/Z)-2-methyl-3-(4-(neopentyloxy)phenyl)acryloyl)-2-oxo-2H-pyran-6-yl)hex-1-enylcarbamate], the MIC in assay [1] is above 50 µg/mL; in assay [3] it was 10 µg/mL; in [4], 2 µg/mL; in assay [5], 10 µg/mL; with Brucella melitensis 16M it was 30 µg/mL; in assay [6], 0.7 µg/mL. Besides, the MIC in assay [7] is 30 µg/mL; in assay [8], above 40 µg/mL; in the assay on Burkholderia mallei CHN7, 50 µg/mL. Besides, the IC50 in assay [2] turned out to be 40 nM.
As to `COC(=O)N/C=C/CCC(C)c1cc(O)c(C(=O)C(C)=Cc2cc3ccc(CCC(F)(F)F)cc3s2)c(=O)o1` (mixture of isomers) [APY114, methyl ((1E)-5-(4-hydroxy-3-(2-methyl-3-(6-(3,3,3-trifluoropropyl)benzo[b]thiophen-2-yl)acryloyl)-2-oxo-2H-pyran-6-yl)hex-1-en-1-yl)carbamate], in assay [2], the IC50 came to 300 nM. Also, the MIC is above 40 µg/mL in assay [5], 0.2 µg/mL in assay [6] and above 40 µg/mL in [8].
On to `CCCc1cn(C)c(C=C(C)C(=O)c2c(O)cc(C(C)CC/C=C/NC(=O)OC)oc2=O)n1` (mixture of isomers) [APY143, methyl ((1E)-5-(4-hydroxy-3-(2-methyl-3-(1-methyl-4-propyl-1H-imidazol-2-yl)acryloyl)-2-oxo-2H-pyran-6-yl)hex-1-en-1-yl)carbamate], for which the IC50 in [2] is 1000 nM. Moreover, the MIC was above 40 µg/mL in assay [5], 10 µg/mL in assay [6] and above 40 µg/mL in assay [8].
As to `COC(=O)N/C=C/CCC(C)c1cc(O)c(C(=O)C(C)=Cc2cc3ccc(CCC(C)C)cc3o2)c(=O)o1` (mixture of isomers) [APY111, methyl ((1E)-5-(4-hydroxy-3-(3-(6-isopentylbenzofuran-2-yl)-2-methylacryloyl)-2-oxo-2H-pyran-6-yl)hex-1-en-1-yl)carbamate], the IC50 in assay [2] was 50 nM. The MIC in [5] was above 40 µg/mL; in [6] it was 0.3 µg/mL; in [8], above 40 µg/mL.
For the molecule `CCCCCc1ccc(C=C(C)C(=O)c2c(O)cc(C(C)CC/C=C/NC(=O)OC)oc2=O)cc1` (mixture of isomers) [APY72, methyl (E)-5-(4-hydroxy-5-((E/Z)-2-methyl-3-(4-pentylphenyl)acryloyl)-6-oxo-6H-pyran-2-yl)hex-1-enylcarbamate], the MIC is 50 µg/mL in assay [1]; 3 µg/mL in assay [4]; 2 µg/mL in assay [5]; 2 µg/mL in the assay with Brucella melitensis 16M; 0.2 µg/mL in [6]; 10 µg/mL in [7]. Besides, the figures for the MIC (in [8]; with Burkholderia mallei CHN7) were above 40 µg/mL and 10 µg/mL, respectively. The IC50 in assay [2] amounted to 200 nM.
Turning to `COC(=O)N/C=C/CCC(C)c1cc(O)c(C(=O)C(C)=Cc2cc(CCC(F)(F)F)cn2C)c(=O)o1` (mixture of isomers) [APY135, methyl ((1E)-5-(4-hydroxy-3-(2-methyl-3-(1-methyl-4-(3,3,3-trifluoropropyl)-1H-pyrrol-2-yl)acryloyl)-2-oxo-2H-pyran-6-yl)hex-1-en-1-yl)carbamate], the IC50 in assay [2] was 100 nM. Also, the figures for the MIC in assay [5], in assay [6] and in assay [8] were 10 µg/mL, 2 µg/mL and above 40 µg/mL, respectively.
For `COC(=O)N/C=C/CCC(C)c1cc(O)c(C(=O)C(C)=Cc2ccc(OCC3CCCO3)cc2)c(=O)o1` (mixture of isomers) [APY54, methyl (E)-5-(4-hydroxy-3-((E/Z)-2-methyl-3-(4-((tetrahydrofuran-2-yl)methoxy)phenyl)acryloyl)-2-oxo-2H-pyran-6-y)hex-1-enylcarbamate] the same measures were above 6000 nM, above 40 µg/mL, 7 µg/mL and above 40 µg/mL.
Turning to `CCc1ccc2cc(C=C(C)C(=O)c3c(O)cc(C(C)CC/C=C/NC(=O)OC)oc3=O)oc2c1` (mixture of isomers) [APY110, methyl ((1E)-5-(3-(3-(6-ethylbenzofuran-2-yl)-2-methylacryloyl)-4-hydroxy-2-oxo-2H-pyran-6-yl)hex-1-en-1-yl)carbamate], the IC50 in assay [2] worked out at 200 nM. Also, the MIC was 30 µg/mL in [3], 8 µg/mL in assay [5], 0.3 µg/mL in assay [6] and above 40 µg/mL in assay [8].
Turning to `COC(=O)N/C=C/CCC(C)c1cc(O)c(C(=O)C(C)=Cc2cccc(OCCC(C)C)c2)c(=O)o1` (mixture of isomers) [APY51, methyl (E)-5-(4-hydroxy-3-((E/Z)-3-(3-isopentyloxy)phenyl)-2-methacryloyl-2-oxo-2H-pyran-6-yl)hex-1-enylcarbamate], the IC50 in assay [2] turned out to be 1000 nM. Also, the MIC in [5] is above 40 µg/mL; in assay [6] it was 0.5 µg/mL; in [8] it was above 40 µg/mL.
In the case of `COC(=O)N/C=C/CCC(C)c1cc(O)c(C(=O)C(C)=Cc2cnc(N3CCCCC3)s2)c(=O)o1` (stereo not shown) [APY142], the IC50 in assay [2] is 600 nM. The figures for the MIC in [5], in assay [6] and in [8] were 20 µg/mL (≈ 39.9 µM), 1 µg/mL (≈ 1.99 µM) and above 40 µg/mL, respectively.
For `COC(=O)N/C=C/CCC(C)c1cc(O)c(C(=O)C(C)=Cc2cc3ccc(CCC(F)(F)F)cc3o2)c(=O)o1` (mixture of isomers) [APY112, methyl ((1E)-5-(4-hydroxy-3-(2-methyl-3-(6-(3,3,3-trifluoropropyl)benzofuran-2-yl)acryloyl)-2-oxo-2H-pyran-6-yl)hex-1-en-1-yl)carbamate], in that order: 300 nM, above 40 µg/mL, 0.2 µg/mL and above 40 µg/mL.
Take `COC(=O)N/C=C/CCC(C)c1cc(O)c(C(=O)C(C)=Cc2ccc(C)cc2)c(=O)o1` (mixture of isomers) [APY57, methyl (E)-5-(4-hydroxy-5-((E/Z)-2-methyl-3-p-tolylacryloyl)-6-oxo-6H-pyran-2-yl)hex-1-enylcarbamate]: the IC50 in [2] is above 6000 nM. The MIC is above 40 µg/mL in assay [5], 1 µg/mL in assay [6] and above 40 µg/mL in [8].
Turning to `COC(=O)N/C=C/CCC(C)c1cc(O)c(C(=O)C(C)=Cc2ccc(C)s2)c(=O)o1` (mixture of isomers) [APY69, methyl (E)-5-(4-hydroxy-5-((E/Z)-2-methyl-3-(5-methylthiophen-2-yl)acryloyl)-6-oxo-6H-pyran-2-yl)hex-1-enylcarbamate], the IC50 in assay [2] amounted to 1000 nM. Further, the MIC is above 40 µg/mL in assay [5], 7 µg/mL in assay [6] and above 40 µg/mL in assay [8].
As to `CCCc1ccc(C=C(C)C(=O)c2c(O)cc(C(C)CC/C=C/NC(=O)OC)oc2=O)cc1` (mixture of isomers) [APY71, methyl (E)-5-(4-hydroxy-5-((E/Z)-2-methyl-3-(4-propylphenyl)acryloyl)-6-oxo-6H-pyran-2-yl)hex-1-enylcarbamate], the MIC in assay [1] was above 50 µg/mL; in assay [4] it was 30 µg/mL; in assay [5], 4 µg/mL; in the assay with Brucella melitensis 16M, 10 µg/mL; in [6], 0.5 µg/mL; in [7] it was above 50 µg/mL. Further, the MIC is above 40 µg/mL in [8] and above 50 µg/mL in the assay with Burkholderia mallei CHN7. In addition, in assay [2], the half-maximal inhibitory concentration (IC50) is 400 nM.
Consider `COC(=O)N/C=C/CCC(C)c1cc(O)c(C(=O)C(C)=Cc2ccc(OCCC(C)C)cc2)c(=O)o1` (mixture of isomers) [APY50, methyl (E)-5-(4-hydroxy-3-((E/Z)-3-(4-isopentyloxy)phenyl)-2-methacryloyl-2-oxo-2H-pyran-6-yl)hex-1-enylcarbamate], for which the 50% inhibitory concentration (IC50) in [2] is above 6000 nM. The MIC in [5] is above 40 µg/mL; in assay [6], 2 µg/mL; in [8], above 40 µg/mL.
As for `COC(=O)N/C=C/CCC(C)c1cc(O)c(C(=O)C(C)=Cc2ccc(CCC3CCCCC3)s2)c(=O)o1` (mixture of isomers) [APY62, methyl (E)-5-(5-((E/Z)-3-(5-(2-cyclohexylethyl)thiophen-2-yl)-2-methylacryloyl)-4-hydroxy-6-oxo-6H-pyran-2-yl)hex-1-enylcarbamate], the IC50 in assay [2] is 10 nM. In addition, the MIC in assay [5] is 2 µg/mL; in assay [6], 10 µg/mL; in assay [8], above 40 µg/mL.
